Assay results as given in patent publication US8674109B2, “Pesticidal compositions” (Dow AgroSciences, LLC., priority 2009, dated 2014).

Key:
Assay type in all cases: in vivo
[1] = test system: beet armyworm (BAW; Spodoptera exigua: Lepidoptera); assay: Insecticidal test for beet armyworm, 128-well diet tray assay
Summary of the method: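 Three to five second-instar larvae per well fed on artificial diet surface-treated with 50 μg/cm^2 compound (applied in 90:10 acetone-water, dried). Trays were held six days at 25 °C, 14:10 light-dark. Percent mortality was averaged across eight wells.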

[2] = test system: corn earworm (CEW; Helicoverpa zea: Lepidoptera); assay: Insecticidal test for corn earworm, 128-well diet tray assay
Summary of the method: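 Second-instar larvae, three to five per well, placed on artificial diet treated with 50 μg/cm^2 compound applied in 90:10 acetone-water and dried. Held six days at 25° C., 14:10 light-dark. Percent mortality scored per well and averaged over eight wells.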

[3] = test system: green peach aphid (Myzus persicae); assay: Insecticidal test for green peach aphid in foliar spray assay on cabbage seedlings
Summary of the method: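 Cabbage seedlings carrying 20-50 aphids (adults and nymphs) were sprayed to runoff with compound at 200 ppm in acetone/methanol diluted in 0.025% Tween 20, with four pots per treatment. After three days at about 25 °C and 40% RH, live aphids were counted. Percent control was Abbott-corrected against solvent-check plants.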

Compound | % Mortality BAW 50 μg/cm^2 [1] | % Mortality CEW 50 μg/cm^2 [2] | % Mortality GPA 200 ppm [3]
O=C(Nc1ccc(-c2ncn(-c3ccc(OC(F)(F)F)cc3)n2)cc1)OC(c1ccccc1)C1CC1 (stereo not drawn) [Compound 88] | A (50-100) | A (50-100) | B (Less than 80)
O=C(Nc1ccc(-c2ncn(-c3ccc(OC(F)(F)F)cc3)n2)cc1)OC1CCc2ccccc21 (stereo not drawn) [Compound 109] | B (Less than 50) | A (50-100) | B (Less than 80)
C#CC(C)(C)OC(=O)Nc1ccc(-c2ncn(-c3ccc(OC(F)(F)F)cc3)n2)cc1 [Compound 12, {4-[1-(4-trifluoromethoxyphenyl)-1H-[1,2,4]triazol-3-yl]-phenyl}-carbamic acid 1,1-dimethyl-prop-2-ynyl ester] | A (50-100) | A (50-100) | B (Less than 80)
Cc1ccccc1C(C)OC(=O)Nc1ccc(-c2ncn(-c3ccc(OC(F)(F)F)cc3)n2)cc1 (stereo not drawn) [Compound 93] | A (50-100) | A (50-100) | B (Less than 80)
CCCCCC(CC)OC(=O)Nc1ccc(-c2ncn(-c3ccc(OC(F)(F)F)cc3)n2)cc1 (stereo not drawn) [Compound 101] | A (50-100) | A (50-100) | B (Less than 80)
O=C(Nc1ccc(-c2ncn(-c3ccc(OC(F)(F)F)cc3)n2)cc1)Oc1ccccc1 [Compound 122] | A (50-100) | A (50-100) | B (Less than 80)
COC(=S)Nc1ccc(-c2ncn(-c3ccc(OC(F)(F)F)cc3)n2)cc1 [Compound 132, O-methyl 4-(1-(4-(trifluoromethoxy)phenyl)-1H-1,2,4-triazol-3-yl)phenylcarbamothioate] | A (50-100) | B (Less than 50) | B (Less than 80)
CC(OC(=O)Nc1ccc(-c2ncn(-c3ccc(OC(F)(F)F)cc3)n2)cc1)c1ccc(Cl)nc1 (stereo not drawn) [Compound 56] | A (50-100) | A (50-100) | B (Less than 80)
CC(OC(=O)Nc1ccc(-c2ncn(-c3ccc(OC(F)(F)F)cc3)n2)cc1)C(F)(F)C(F)(F)F (stereo not drawn) [Compound 24, {4-[1-(4-trifluoromethoxyphenyl)-1H-[1,2,4]triazol-3-yl]phenyl}-carbamic acid 2,2,3,3,3-pentafluoro-1-methyl-propyl ester] | A (50-100) | A (50-100) | B (Less than 80)
CC(OC(=O)Nc1ccc(-c2ncn(-c3ccc(OC(F)(F)F)cc3)n2)cc1)c1cccnc1 (stereo not drawn) [Compound 110] | A (50-100) | A (50-100) | B (Less than 80)
COC(=O)Nc1ccc(-c2ncn(-c3ccc(OC(F)(F)C(F)(F)F)cc3)n2)cc1 [Compound 135, methyl 4-(1-(4-(perfluoroethoxy)phenyl)-1H-1,2,4-triazol-3-yl)phenylcarbamate] | A (50-100) | A (50-100) | B (Less than 80)
O=C(Nc1ccc(-c2ncn(-c3ccc(OC(F)(F)F)cc3)n2)cc1)Oc1cccc(-c2ccccc2)c1 [Compound 129] | A (50-100) | A (50-100) | B (Less than 80)
CC(OC(=S)Nc1ccc(-c2ncn(-c3ccc(OC(F)(F)F)cc3)n2)cc1)c1ccc(C(F)(F)F)nc1 (stereo not drawn) [Compound 133, O-1-(6-(trifluoromethyl)pyridin-3-yl)ethyl 4-(1-(4-(trifluoromethoxy)phenyl)-1H-1,2,4-triazol-3-yl)phenylcarbamothioate] | A (50-100) | A (50-100) | B (Less than 80)
C#CC(OC(=O)Nc1ccc(-c2ncn(-c3ccc(C(F)(F)F)cc3)n2)cc1)c1ccc(C(F)(F)F)cc1 (stereo not drawn) [Compound 29] | A (50-100) | A (50-100) | B (Less than 80)
CC(OC(=O)Nc1ccc(-c2ncn(-c3ccc(OC(F)(F)F)cc3)n2)cc1)c1ccc(-c2ccccc2)cc1 (stereo not drawn) [Compound 116] | B (Less than 50) | A (50-100) | B (Less than 80)
COc1ccc(C(C)OC(=O)Nc2ccc(-c3ncn(-c4ccc(OC(F)(F)F)cc4)n3)cc2)cc1 (stereo not drawn) [Compound 97] | A (50-100) | A (50-100) | B (Less than 80)
C#CC(OC(=O)Nc1ccc(-c2ncn(-c3ccc(OC(F)(F)F)cc3)n2)cc1)c1ccc(C(F)(F)F)nc1 (stereo not drawn) [Compound 53] | A (50-100) | A (50-100) | B (Less than 80)
CC(OC(=O)Nc1ccc(-c2ncn(-c3ccc(OC(F)(F)F)cc3)n2)cc1)c1ccc(F)cn1 (stereo not drawn) [Compound 117] | A (50-100) | A (50-100) | B (Less than 80)
CCCCC(C)OC(=O)Nc1ccc(-c2ncn(-c3ccc(OC(F)(F)F)cc3)n2)cc1 (stereo not drawn) [Compound 9, {4-[1-(4-trifluoromethoxyphenyl)-1H-[1,2,4]triazol-3-yl]-phenyl}-carbamic acid 1-methyl-pentyl ester] | A (50-100) | A (50-100) | B (Less than 80)
CC(OC(=O)Nc1ccc(-c2ncn(-c3ccc(C(F)(F)F)cc3)n2)cc1)c1ccc(C(F)(F)F)nc1 (stereo not drawn) [Compound 28] | A (50-100) | A (50-100) | B (Less than 80)
CC(OC(=O)Nc1ccc(-c2ncn(-c3ccc(OC(F)(F)F)cc3)n2)cc1)c1ccc(C(C)(C)C)cc1 (stereo not drawn) [Compound 40] | A (50-100) | A (50-100) | B (Less than 80)
CC(C)(OC(=O)Nc1ccc(-c2ncn(-c3ccc(OC(F)(F)F)cc3)n2)cc1)c1ccc(C(F)(F)F)cc1 [Compound 49] | A (50-100) | A (50-100) | B (Less than 80)
